Data on eleven molecules can be found in article PMC8994671 (ACS infectious diseases, 2017).

One may read the MIC as the smallest concentration in the dilution series that meets the test's criterion for growth inhibition.

Converted amounts (≈) assume the structure as drawn. Like-named read-outs stand apart in the source and are kept apart here.

The test system of assay [1] is C. neoformans. As to the kind of experiment: In vitro antifungal susceptibility testing. It counts as cell-based, Cryptococcus neoformans. The conditions noted are these: for MIC: Cryptococcus neoformans, read-out: C. neoformans MIC; for C. neoformans MIC: Table 1, highest value of at least three biological replicates.
The test system of assay [2] is calmodulin-dependent localization of Crz1. The conditions noted are these: assay validation; cited from earlier work.
In assay [3] the test system is C. albicans. The following applies: cited from earlier work.
In assay [4] the test system is C. albicans. As to the kind of experiment: In vitro antifungal susceptibility testing. It counts as cell-based. The conditions noted are these: Candida albicans, SC5314, read-out: C. albicans MIC.
In assay [5] the test system is calmodulin-dependent localization of Crz1. As to the kind of experiment: Crz1 nuclear translocation assay. The following applies: shift to 37°C. It counts as cell-based, Cryptococcus neoformans.

`CN(C)CCCN1c2ccccc2Sc2ccc(Cl)cc21` [Chlorpromazine (3), Chlorpromazine]: the minimal inhibitory concentration (MIC) in assay [1] was 25 µg/mL (≈ 78.4 µM).
For the molecule `CCN(CC)CCCCN1c2ccccc2Oc2ccc(Cl)cc21` [Compound 12], the “C. neoformans MIC” value in assay [1] turned out to be 8 µg/mL.
As for `C=CC[C@@H]1/C=C(\C)C[C@H](C)C[C@H](OC)[C@H]2O[C@@](O)(C(=O)C(=O)N3CCCC[C@H]3C(=O)O[C@H](/C(C)=C/[C@@H]3CC[C@@H](O)[C@H](OC)C3)[C@H](C)[C@@H](O)CC1=O)[C@H](C)C[C@@H]2OC` [FK506], the “Effect on nuclear localization of Crz1” value in assay [2] is listed as “reduce nuclear localization of Crz1”.
For `OC(Cn1cncn1)(Cn1cncn1)c1ccc(F)cc1F` [FLU, Fluconazole], the “C. albicans MIC” value in assay [3] (strain SC5314) is 0.25 µg/mL; in assay [3] (strain TWO7229), 0.25 µg/mL; in assay [3] (strain TWO7230) it was 2 µg/mL; in assay [3] (strain TWO7241), 16 µg/mL; in assay [3] (strain TWO7243), 128 µg/mL.
For the molecule `OCCN1CCN(CCCN2c3ccccc3Sc3ccc(C(F)(F)F)cc32)CC1` [Fluphenazine (10), Fluphenazine], in assay [1], the MIC was 8 µg/mL (≈ 18.3 µM) and the “C. neoformans MIC” value turned out to be 8 µg/mL.
`CN1CCN(CCCN2c3ccccc3Sc3ccc(Cl)cc32)CC1` [Prochlorperazine (7), Prochlorperazine]: the MIC in assay [1] came out at 64 µg/mL (≈ 171 µM).
For `CN(C)CCCN1c2ccccc2Sc2ccccc21` [Promazine (2), Promazine], the MIC in assay [1] came to 64 µg/mL (≈ 225 µM).
On to `CSc1ccc2c(c1)N(CCC1CCCCN1C)c1ccccc1S2` (stereo not shown) [Thioridazine, THZ (1), Thioridazine], for which, in assay [1], the MIC came to 16 µg/mL (≈ 43.2 µM) and the “C. neoformans MIC” value worked out at 16 µg/mL.
Regarding `CN1CCN(CCCN2c3ccccc3Sc3ccc(C(F)(F)F)cc32)CC1` [Trifluoperazine, TFP (8), Trifluoperazine], the figures for the MIC in assay [4] and in assay [1] were > 32 µg/mL and 16 µg/mL (≈ 39.3 µM), respectively. Besides, the “Effect on nuclear localization of Crz1” value in assay [2] is “reduce nuclear localization of Crz1”. Also, the “Effect on Crz1 localization” value in assay [5] (higher concentrations than 2 μg/mL, Fig. 1B) is “reduce localization significantly”; in assay [5] (sub-inhibitory concentration 2 μg/mL), “fail to affect Crz1 localization”. The “C. neoformans MIC” value in assay [1] was found to be 16 µg/mL.
For `CN(C)CCCN1c2ccccc2Sc2ccc(C(F)(F)F)cc21` [Triflupromazine (4), Triflupromazine], the MIC in assay [1] stood at 32 µg/mL (≈ 90.8 µM).
As to `CC/C(=C(\c1ccccc1)c1ccc(OCCN(C)C)cc1)c1ccccc1` [tamoxifen], the “Effect on nuclear localization of Crz1” value in assay [2] is given as “reduce nuclear localization of Crz1”.
